Results published in paper PMC9775191, “A Subset Screen of the Compounds Australia Scaffold Library Identifies 7-Acylaminodibenzoxazepinones as Potent and Selective Hits for Anti-Giardia Drug Discovery” (Biomedicines, 2022).

Tested on: G. duodenalis BRIS/91/HEPU/1279
Experiment: Primary Giardia screen at 10 µM (live-cell imaging, automated counting)
Assay type: cell-based, Giardia duodenalis
Conditions: for % Inhibition n=1 48h / % Inhibition n=1 24h: first singlicate assay; for % Inhibition n=2 24h / % Inhibition n=2 48h: re-assessment
How it was run: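 One concentration, 10 μM, is screened per compound in singlicate under microaerophilic gas (3% O2, 5% CO2, N2). Inhibition comes from automated image-based counts at 24 and 48 h, relative to 0.2% DMSO controls.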

Structure (SMILES)	% Inhibition n=1 48h	other results
COc1ccc(-c2cc3c(=O)n(Cc4cccc(F)c4)ccn3n2)cc1 [SN00793208]	0.0%	–
CC(C)(C)C(=O)N1CCC(C(=O)N2CC=C(c3ccc(F)cc3)CC2)CC1 [SN00770003]	0.0%	–
COc1ccc(Nc2nc(-c3nnn(-c4ccc(F)cc4F)c3C)ns2)cc1OC [SN00798157]	52.7%	Average % Inhibition 24h: 11.4%; % Inhibition n=1 24h: 18.3%; % Inhibition n=2 24h: 4.5%; Average % Inhibition 48h: 26.3%; % Inhibition n=2 48h: 0.0%
O=C(CN1CCN(Cc2ccccc2)C1=O)NCc1ccc(Cl)cc1 [SN00784814]	0.0%	–
O=C(O)c1cccc(Nc2nc(Nc3ccccc3)nc(N3CCCC3)n2)c1 [SN00783666]	0.3%	–
O=C(NCCc1ccccc1)N1CCCC1c1nc(-c2ccccc2)no1 (stereo not shown) [SN00797440]	0.0%	–
Cc1scc2nc(C(N)=O)nc(N3CCCC3)c12 [SN00801956]	22.6%	–
O=C(CCc1cnn(-c2ccccc2)c1)Nc1cc(C2CCOCC2)[nH]n1 [SN00782289]	8.0%	–
Cc1ccc(-c2cc3nc(C)cc(N4CCC(C(=O)NCCCN5CCCC5)CC4)n3n2)cc1 [SN00795048]	16.1%	–
CCc1nc(N2CCCC2=O)sc1C(=O)Nc1ccc(C)c(C)c1 [SN00796500]	0.0%	–
Cc1ccc(NC(=O)Cn2nnc(-c3nc(-c4ccccc4)no3)c2N)cc1C [SN00788081]	2.5%	–
COC(=O)c1ccccc1NC(=O)Nc1ccc2[nH]c3c(c2c1)CN(C(C)C)CC3 [SN00798231]	4.3%	–
Cc1cnc(C(=O)N2CCN(C(=O)OC(C)(C)C)C(C)C2)cn1 (stereo not shown) [SN00774718]	0.0%	–
Cc1c(N2CCC(C(=O)NC3CCCCCC3)CC2)c(=O)n(CC(C)C)c(=O)n1-c1ccccc1 [SN00790002]	9.5%	–
CCn1cc(C(=O)NCc2ccccc2)c(=O)c2ccc(C)nc21 [SN00792575]	6.1%	–
CSc1ccc(NC(=O)c2cn(C)c3ncccc23)cc1 [SN00799688]	9.5%	–
Cn1nc(-c2nnc(-c3ccccc3Cl)o2)c2c1CCN(C(=O)c1ccc(F)c(F)c1)C2 [SN00796834]	25.5%	Average % Inhibition 24h: 6.4%; % Inhibition n=1 24h: 12.9%; % Inhibition n=2 24h: 0.0%; Average % Inhibition 48h: 12.8%; % Inhibition n=2 48h: 0.0%
COc1ccc(-c2noc(-c3cc(-c4cccs4)n[nH]3)n2)cc1 [SN00791300]	15.5%	–
CCn1cc(CN2CCCN(C(=O)c3cc(C4CC4)on3)CC2)cn1 [SN00778709]	0.0%	–
Cc1nc(N2CCOCC2)c2c(C(=O)N3CCCC3)c(C)oc2n1 [SN00788445]	0.0%	–
COc1ccc(C2CCC(=O)N2CCN2CCOCC2)cc1 (stereo not shown) [SN00801430]	34.6%	–
Cn1nc(C(=O)NCc2ccc3c(c2)OCO3)c2c1CCN(C(=O)C1CCCC1)C2 [SN00789838]	7.0%	–
COc1ccc(C(=O)c2c(N)c(-c3nc(-c4cc(OC)ccc4OC)cs3)c3ccccn23)cc1 [SN00785721]	0.0%	–
Cc1ccc(NC(=O)c2cc(-c3ccc4c(c3)OCCO4)on2)cc1C [SN00786283]	2.9%	–
O=C(N[C@H]1C[C@@H]2C[C@H]1CN2S(=O)(=O)c1ccc2c(c1)CCCC2)c1cccnc1 [SN00800980]	0.6%	–
Cc1ccc2oc(N3CCN(C(=O)C(C)c4ccccc4)CC3)nc2n1 (stereo not shown) [SN00786842]	24.1%	–

Structure (SMILES)	% Inhibition n=1 48h	other results
COc1c(C(=O)Nc2ccccc2)oc2ccc(NC(=O)C3CCCCC3)cc12 [SN00798797]	3.8%	–
CCc1cccc(NC(=O)C2CCCN(S(=O)(=O)c3c(C)noc3C)C2)c1 (stereo not shown) [SN00784983]	0.0%	–
CCCn1ccc2sc(C)c(C(=O)NC3CCCCC3)c2c1=O [SN00799943]	16.0%	–
O=C(NCc1cccc(Br)c1)c1ncoc1-c1cccs1 [SN00792278]	6.4%	–
COC(=O)c1cccc2c1CCCN2C(=O)C1CC(=O)N(CCc2ccccc2)C1 (stereo not shown) [SN00775178]	0.0%	–
CSc1ccc(N2CC(C(=O)N3c4ccccc4CC3C)CC2=O)cc1 (stereo not shown) [SN00775126]	0.0%	–
CCc1nccn1CC1CCCN1 (stereo not shown) [SN00772783]	0.0%	–
Cc1ccc2nc(C3=C(N)N(C4CCCCCC4)CC3=O)[nH]c2c1 [SN00785773]	29.0%	–
COc1ccccc1CN1CCN(c2cc(C(=O)O)c3cc(NC(C)=O)ccc3n2)CC1 [SN00790290]	39.8%	–
CC(NC(=O)C1CCOCC1)c1nc(-c2cccnc2)cs1 (stereo not shown) [SN00769908]	0.0%	–
CCc1ccc(-c2cc(C(=O)N3CCN(c4c(C)n(-c5ccccc5)c(=O)n(C)c4=O)CC3)[nH]n2)cc1 [SN00790031]	0.0%	–
CCn1c(Cn2c(-c3cccnc3)noc2=O)nc2c(F)cccc21 [SN00781429]	0.0%	–
Cc1nn(-c2ccccc2)c2c1C(C(=O)NC1CCCC1)N(c1ccc(F)cc1F)C(=O)CS2 (stereo not shown) [SN00791377]	1.8%	–
COCCn1cc2c3c(cccc31)CN(C(=O)c1cccc(Cl)c1)CC2 [SN00798558]	26.2%	–
CNC(=O)N1CCC(c2nc(C)c(C(=O)NCCCOC)s2)CC1 [SN00798240]	6.4%	–
O=C(c1nc2nc(-c3ccco3)cc(C(F)(F)F)n2n1)N1CCCCCC1 [SN00794256]	19.8%	–
CN1CCN(CC2CCN(c3ccc([N+](=O)[O-])cc3Cl)CC2)CC1 [SN00781176]	33.0%	–
Cc1coc(C)c1C(=O)CC1(O)C(=O)Nc2ccccc21 (stereo not shown) [SN00783840]	0.0%	–
CCCCCCNC(=O)Cc1c(C)nc2c(-c3ccccc3)c(C)nn2c1C [SN00785656]	17.0%	–
O=C(Nc1ccccc1)c1cc(-c2cccs2)n(C2CCS(=O)(=O)C2)n1 (stereo not shown) [SN00786904]	1.7%	–
CCOC(=O)CC(=O)Nc1ccc(-c2onc3c2CCc2cc(OC)ccc2-3)cc1 [SN00802675]	5.3%	–
O=C(Cn1c(=O)c2c(ncn2C2CCCC2)n(Cc2ccccc2)c1=O)Nc1cc(Cl)ccc1F [SN00773912]	0.0%	–
c1ccc2sc(N3CCCC3c3nnc4n3CCCCC4)nc2c1 (stereo not shown) [SN00771886]	12.0%	–
CC1CC(C)CN(C(=O)Cn2cnc3c(nc4n3CCCCC4)c2=O)C1 (stereo not shown) [SN00788055]	0.0%	–
Cc1c(-c2nc(-c3cccnc3)no2)oc2ccc(S(=O)(=O)N3CCOCC3)cc12 [SN00791042]	1.1%	–
Cc1nc(-c2ccc(C(=O)N3CCCC3C(=O)Nc3ccc(C)c(Cl)c3)cc2)no1 (stereo not shown) [SN00793320]	16.2%	–

Structure (SMILES)	% Inhibition n=1 48h	other results
O=C(c1nnn(-c2ccccc2Cl)c1-c1ccncc1)N1CCc2ccccc2C1 [SN00796355]	30.9%	–
CCN(c1ccc(-c2csc(Cc3nnc4n3CCCCC4)n2)cc1)S(C)(=O)=O [SN00776436]	17.3%	–
COc1ccc(OC)c(CNC(=O)c2ccc3[nH]c4c(c3c2)CN(C(C)=O)CC4)c1 [SN00798195]	0.0%	–
CN(CC1CCOC1)C(=O)Cc1ccccc1 (stereo not shown) [SN00801209]	0.0%	–
Cc1ccc(NC(=O)CN2N=C(C(=O)Nc3ccc(F)cc3)CCC2=O)cc1F [SN00799502]	8.0%	–
CCc1nc(C)c2c(C)c(C(=O)N3CCN(c4ncccn4)CC3)sc2n1 [SN00779630]	22.3%	–
C=CCc1ccc(OCC(O)CN2C(=O)NC(C)(c3ccccn3)C2=O)c(OC)c1 (stereo not shown) [SN00780622]	48.2%	–
Cc1sc2c(c1C)C(c1ccc(F)cc1)=NCC(=O)N2CC(=O)Nc1ccc(Cl)cc1 [SN00791866]	0.0%	–
O=C(N[C@H]1C[C@@H]2C[C@H]1N(C(=O)Nc1ccc3c(c1)CCC3)C2)c1ccccc1 [SN00800945]	6.6%	–
CCN1C(=O)C(=O)N(Cc2coc(-c3ccc(C)cc3)n2)C1=O [SN00778011]	28.7%	–
CCOc1ccc(CCNC(=O)c2c(C)oc3c2C2=NCCN2C=N3)cc1OCC [SN00791607]	17.8%	–
O=C(Nc1cc(Cl)ccc1O)c1cc(-c2ccc(F)cc2)no1 [SN00787460]	3.6%	–
Cc1nc(N2CCCC2)c2c(C)c(C(=O)Nc3ccccc3Cl)sc2n1 [SN00793643]	49.2%	–
O=C(Nc1cccc(O)c1)c1cc(-c2cccnc2)on1 [SN00784502]	24.5%	–
O=C(c1cccc(-c2nc(-c3ccc(F)cc3)no2)c1)N1CCN(c2ccccc2)CC1 [SN00795713]	0.9%	–
COc1ccccc1-c1cc(C(=O)N2CCCN(c3ccc(=O)n(-c4ccc(C)c(C)c4)n3)CC2)[nH]n1 [SN00791007]	8.7%	–
O=C(C1CC=CCC1)N1CCN(S(=O)(=O)c2c[nH]c3ncccc23)CC1 (stereo not shown) [SN00781077]	7.5%	–
CCc1nnc2n1CCN(Cc1csc(-c3ccsc3)n1)C2 [SN00782656]	24.2%	–
Cc1ccc(CNC(=O)C2(S(=O)(=O)c3ccc(Cl)cc3)CC2)cc1 [SN00784605]	11.5%	–
Fc1ccc(-c2cc(C(F)(F)F)nc(NCc3ccco3)n2)cc1 [SN00784252]	2.3%	–
Cc1nc(-c2ccc3c(c2)n(CC(=O)NC2CCN(Cc4ccccc4)CC2)c(=O)n3C(C)C)no1 [SN00798376]	5.7%	–
COc1ccccc1C(=O)n1ccn(S(=O)(=O)c2ccc(C)cc2)c1=O [SN00789029]	6.3%	–
CC(=O)Nc1nsc(N2CCCC(C(=O)NCc3ccccc3Cl)C2)n1 (stereo not shown) [SN00800180]	5.9%	–
Cc1ccc(CNC(=O)N2CCCN(C3CCN(CC4CC4)C3=O)CC2)cc1 (stereo not shown) [SN00802402]	5.4%	–
Cc1ccc(S(=O)(=O)Nc2ccc3c(c2)N(C(=O)c2ccco2)CCC3)cc1C [SN00792238]	12.2%	–
O=C(Nc1cnn(Cc2cn3ccccc3n2)c1)Nc1ccc(F)cc1F [SN00774154]	7.2%	–
